From ChEMBL document CHEMBL1156922, “Interaction between double helix DNA fragments and the new antitumor agent sabarubicin, Men10755” (Bioorg Med Chem, 2010)

Legend:
Nucleic Acid [1] = experiment: Binding affinity to d(CGTACG)2 assessed as average residence time; assay type: nucleic-acid assay
Nucleic Acid [2] = experiment: Binding affinity to d(CGATCG)2 assessed as average residence time; assay type: nucleic-acid assay

Structure (SMILES)	TIME (Nucleic Acid [1]) [h]	TIME (Nucleic Acid [2]) [h]
CC(=O)[C@]1(O)Cc2c(O)c3c(c(O)c2[C@@H](O[C@H]2C[C@H](O)[C@H](O[C@H]4C[C@H](N)[C@H](O)[C@H](C)O4)[C@H](C)O2)C1)C(=O)c1ccccc1C3=O	5e-05	5e-05
COc1cccc2c1C(=O)c1c(O)c3c(c(O)c1C2=O)C[C@@](O)(C(=O)CO)C[C@@H]3O[C@H]1C[C@H](N)[C@H](O)[C@H](C)O1	0.000347	0.000231
COc1cccc2c1C(=O)c1c(O)c3c(c(O)c1C2=O)C[C@@](O)(C(=O)CO)C[C@@H]3O[C@H]1C[C@H](N2CCO[C@H](OC)C2)[C@H](O)[C@H](C)O1	0.00139	
C[C@@H]1O[C@@H](O[C@@H]2[C@H](C)O[C@@H](O[C@H]3C[C@](O)(C(=O)CO)Cc4c(O)c5c(c(O)c43)C(=O)c3ccccc3C5=O)C[C@@H]2O)C[C@H](N)[C@@H]1O	5.83e-05	0.000131
